Data published in PubChem BioAssay (NCI).
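Following 48 hours of exposure in 96-well plates, responses at five concentrations were used to interpolate endpoints linearly. GI50 marks 50% less growth. TGI is the concentration that stops growth completely.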

How the values were obtained:
Assay in all cases: NCI tumour cell line growth inhibition, 48 h
[1] = test system: 786-0 renal
[2] = test system: A498 renal
[3] = test system: A549 NSCLC
[4] = test system: ACHN renal
[5] = test system: BT-549 breast
[6] = test system: CAKI-1 renal
[7] = test system: CCRF-CEM leukemia
[8] = test system: COLO 205 colon
[9] = test system: DU-145 prostate
[10] = test system: EKVX NSCLC
[11] = test system: HCC-2998 colon
[12] = test system: HCT-116 colon
[13] = test system: HCT-15 colon
[14] = test system: HL-60(TB) leukemia
[15] = test system: HOP-62 NSCLC
[16] = test system: HOP-92 NSCLC
[17] = test system: HS 578T breast
[18] = test system: HT29 colon
[19] = test system: K-562 leukemia
[20] = test system: KM12 colon
[21] = test system: LOX IMVI melanoma
[22] = test system: M14 melanoma
[23] = test system: MALME-3M melanoma
[24] = test system: MDA-MB-435
[25] = test system: MOLT-4 leukemia
[26] = test system: NCI-H226 lung
[27] = test system: NCI-H23 lung
[28] = test system: NCI-H460 lung
[29] = test system: NCI-H522 lung
[30] = test system: NCI/ADR-RES ovarian
[31] = test system: OVCAR-3 ovarian
[32] = test system: OVCAR-4 ovarian
[33] = test system: OVCAR-5 ovarian
[34] = test system: OVCAR-8 ovarian
[35] = test system: PC-3 prostate
[36] = test system: RXF 393 renal
[37] = test system: SF-268 CNS
[38] = test system: SF-295 CNS
[39] = test system: SF-539 CNS
[40] = test system: SK-MEL-2 melanoma
[41] = test system: SK-MEL-28 melanoma
[42] = test system: SK-MEL-5 melanoma
[43] = test system: SK-OV-3 ovarian
[44] = test system: SN12C renal
[45] = test system: SNB-19 CNS
[46] = test system: SNB-75 CNS
[47] = test system: SR leukemia
[48] = test system: SW-620 colon
[49] = test system: T-47D breast
[50] = test system: TK-10 renal
[51] = test system: U251 CNS
[52] = test system: UACC-257 melanoma
[53] = test system: UACC-62 melanoma
[54] = test system: UO-31 renal
[55] = test system: IGROV1 ovarian
[56] = test system: MCF7 breast
[57] = test system: MDA-MB-231 breast

## CC(C)(C)c1cc(C(=O)Nc2ccc(C(=O)NCCN)cc2)cc(C(C)(C)C)c1
[1]
  GI50: 1.56 µM
  TGI: 3.07 µM
[2]
  GI50: 8.27 µM
  TGI: 26 µM
[3]
  GI50: 3.15 µM
  TGI: 9.41 µM
[4]
  GI50: 4.45 µM
  TGI: 18.7 µM
[5]
  GI50: 13.1 µM
  TGI: 33.6 µM
[6]
  GI50: 15.5 µM
  TGI: 32.9 µM
[7]
  GI50: 2.54 µM
  TGI: 7.28 µM
[8]
  GI50: 1.85 µM
  TGI: 3.77 µM
[9]
  GI50: 3.46 µM
  TGI: 12.4 µM
[10]
  GI50: 2.04 µM
  TGI: 14.5 µM
[11]
  GI50: 1.69 µM
  TGI: 3.18 µM
[12]
  GI50: 3.36 µM
  TGI: 12.7 µM
[13]
  GI50: 4.75 µM
  TGI: 19.4 µM
[14]
  GI50: 1.9 µM
  TGI: 3.87 µM
[15]
  GI50: 4.5 µM
  TGI: 21.8 µM
[16]
  GI50: 2.82 µM
  TGI: 12.6 µM
[17]
  GI50: 2.2 µM
  TGI: 5.96 µM
[18]
  GI50: 2 µM
  TGI: 5.19 µM
[19]
  GI50: 1.94 µM
  TGI: 5.06 µM
[20]
  GI50: 2.22 µM
  TGI: 5.14 µM
[21]
  GI50: 1.65 µM
  TGI: 3.16 µM
[22]
  GI50: 1.71 µM
  TGI: 3.42 µM
[23]
  GI50: 1.43 µM
  TGI: 3.13 µM
[24]
  GI50: 1.52 µM
  TGI: 3.09 µM
[25]
  GI50: 2.63 µM
  TGI: 7.3 µM
[26]
  GI50: 6.43 µM
  TGI: 28.1 µM
[27]
  GI50: 3.19 µM
  TGI: 14.4 µM
[28]
  GI50: 1.93 µM
  TGI: 3.73 µM
[29]
  GI50: 2.41 µM
  TGI: 7.63 µM
[30]
  GI50: 14.7 µM
  TGI: 35 µM
[31]
  GI50: 2.18 µM
  TGI: 4.97 µM
[32]
  GI50: 2.71 µM
  TGI: 11 µM
[33]
  GI50: 6.07 µM
  TGI: 22.8 µM
[34]
  GI50: 3.39 µM
  TGI: 10.9 µM
[35]
  GI50: 3.07 µM
  TGI: 11 µM
[36]
  GI50: 1.68 µM
  TGI: 3.16 µM
[37]
  GI50: 2.03 µM
  TGI: 5.05 µM
[38]
  GI50: 1.73 µM
  TGI: 3.47 µM
[39]
  GI50: 1.68 µM
  TGI: 3.41 µM
[40]
  GI50: 2.15 µM
  TGI: 4.85 µM
[41]
  GI50: 1.79 µM
  TGI: 3.67 µM
[42]
  GI50: 1.74 µM
  TGI: 3.15 µM
[43]
  GI50: 5.31 µM
  TGI: 20.7 µM
[44]
  GI50: 1.98 µM
  TGI: 3.9 µM
[45]
  GI50: 3.65 µM
  TGI: 16.6 µM
[46]
  GI50: 4.02 µM
  TGI: 24.5 µM
[47]
  GI50: 1.47 µM
  TGI: 4.82 µM
[48]
  GI50: 1.84 µM
  TGI: 3.65 µM
[49]
  GI50: 2.07 µM
  TGI: 5.58 µM
[50]
  GI50: 2.99 µM
  TGI: 9.64 µM
[51]
  GI50: 1.91 µM
  TGI: 3.88 µM
[52]
  GI50: 17.7 µM
  TGI: 37.4 µM
[53]
  GI50: 1.86 µM
  TGI: 3.56 µM
[54]
  GI50: 4.68 µM
  TGI: 22 µM

## [N-]=[N+]=NCCCn1c2c(c3ccc([N+](=O)[O-])cc3c1=O)C(=O)c1cc3c(cc1-2)OCO3
[1]
  GI50: < 0.0141 µM
  TGI: < 0.025 µM
[3]
  GI50: < 0.0388 µM
  TGI: 2.87 µM
[4]
  GI50: < 0.0161 µM
  TGI: 0.459 µM
[5]
  GI50: < 0.01 µM
  TGI: < 0.01 µM
[6]
  GI50: < 0.01 µM
  TGI: < 0.0152 µM
[7]
  GI50: < 0.01 µM
  TGI: 0.0679 µM
[8]
  GI50: 0.585 µM
  TGI: > 100 µM
[9]
  GI50: 0.0342 µM
  TGI: 0.271 µM
[10]
  GI50: 0.379 µM
  TGI: 3.62 µM
[12]
  GI50: < 0.01 µM
  TGI: 1.18 µM
[13]
  GI50: 1.42 µM
  TGI: > 100 µM
[14]
  GI50: < 0.0281 µM
  TGI: > 100 µM
[16]
  GI50: 2.56 µM
  TGI: > 33.5 µM
[18]
  TGI: > 100 µM
[55]
  GI50: 0.165 µM
  TGI: 1.46 µM
[19]
  TGI: > 100 µM
[20]
  TGI: 5.01 µM
[21]
  GI50: < 0.01 µM
  TGI: 1.02 µM
[22]
  GI50: < 0.01 µM
  TGI: < 0.01 µM
[56]
  GI50: 0.158 µM
  TGI: 7.68 µM
[57]
  GI50: 0.828 µM
  TGI: 12.3 µM
[24]
  GI50: < 0.042 µM
  TGI: 1.49 µM
[25]
  GI50: < 0.0374 µM
[26]
  GI50: < 0.01 µM
  TGI: 2.34 µM
[27]
  GI50: < 0.01 µM
  TGI: < 0.01 µM
[28]
  GI50: < 0.01 µM
  TGI: 0.501 µM
[29]
  GI50: 0.109 µM
  TGI: 0.844 µM
[30]
  GI50: < 0.0114 µM
  TGI: < 0.041 µM
[31]
  TGI: 2.87 µM
[32]
  GI50: 4.83 µM
  TGI: > 100 µM
[33]
  GI50: 0.215 µM
  TGI: 2.1 µM
[34]
  GI50: < 0.0446 µM
  TGI: 16.6 µM
[35]
  GI50: 2.24 µM
  TGI: > 100 µM
[36]
  GI50: 0.39 µM
  TGI: 40.3 µM
[38]
  GI50: < 0.012 µM
  TGI: < 0.0428 µM
[39]
  GI50: < 0.0171 µM
  TGI: < 0.0363 µM
[40]
  GI50: 2.58 µM
  TGI: 22.3 µM
[41]
  GI50: 14.4 µM
  TGI: > 100 µM
[42]
  GI50: < 0.0317 µM
  TGI: 0.196 µM
[43]
  GI50: 0.7 µM
  TGI: > 100 µM
[44]
  GI50: < 0.0106 µM
  TGI: 0.95 µM
[45]
  TGI: > 100 µM
[46]
  TGI: > 100 µM
[47]
  GI50: < 0.01 µM
  TGI: < 0.01 µM
[48]
  GI50: < 0.0285 µM
  TGI: > 100 µM
[49]
  GI50: 0.656 µM
  TGI: > 100 µM
[50]
  GI50: 2.26 µM
  TGI: 19.9 µM
[51]
  GI50: < 0.0174 µM
  TGI: 1.04 µM
[52]
  GI50: 0.495 µM
  TGI: 15.2 µM
[53]
  GI50: < 0.0211 µM
  TGI: 0.782 µM
[54]
  GI50: < 0.0335 µM
  TGI: 2.28 µM
